The source of these data is PMC4503722, “Novel Phenotypic Outcomes Identified for a Public Collection of Approved Drugs from a Publicly Accessible Panel of Assays” (PLoS ONE, 2015).

The subject of experiment [1] is nuclear β-catenin in C2C12 cells. In words: cells. It counts as cell-based.
The test system of experiment [2] is alkaline phosphatase (ALP) activity in C2C12 cells. It counts as cell-based.
The test system of the next experiment is HeLa cells. Put plainly: cells. The class given is cell-based.
A further experiment relates to DLD-1. In words: cells. It counts as cell-based.
In a further experiment the test system is SW480. Put plainly: cells. It counts as cell-based.
For a further experiment, the system named is HCT116. In words: cells. It counts as cell-based.
In experiment [3] the test system is HCT116 cells treated with a GSK3β inhibitor. In words: cells. It counts as cell-based.
Another experiment concerns Colo320. In words: cells. It counts as cell-based.
The subject of the next experiment is HT-29. Put plainly: cells. It counts as cell-based.
For a further experiment, the system named is RKO. In words: cells. The class given is cell-based.
The next experiment deals with SNU-C1. Put plainly: cells. The class given is cell-based.
A further experiment concerns the target T1, hp70S6K1 (RPS6KB1) (Homo sapiens, UniProt P23443).
T1 construct: purchased Cerep (LANCE kinase assay platform, contract assay)
In words: Cerep LANCE kinase assay hp70S6K1 (S1 assay 31). The class given is biochemical.

Another experiment deals with T2, hKDR (Homo sapiens, UniProt P35968).
T2 construct: purchased Cerep (LANCE kinase assay platform, contract assay)
In words: Cerep LANCE kinase assay hKDR (S1 assay 32). It counts as biochemical. Background: In TR-FRET formats the signal depends on donor and acceptor labels being close together.

Another experiment deals with T3, hJAK2 (Homo sapiens, UniProt O60674).
T3 construct: purchased Cerep (LANCE kinase assay platform, contract assay)
In words: Cerep LANCE kinase assay hJAK2 (S1 assay 33). The class given is biochemical.

For the next experiment, the target named is T4, hGSK3b (Homo sapiens, UniProt P49841).
T4 construct: purchased Cerep (LANCE kinase assay platform, contract assay)
In words: Cerep LANCE kinase assay hGSK3b (S1 assay 34). It counts as biochemical.

A further experiment concerns the target T5, hFLT3 (Homo sapiens, UniProt P36888).
T5 construct: purchased Cerep (LANCE kinase assay platform, contract assay)
Put plainly: Cerep LANCE kinase assay hFLT3 (S1 assay 35). The class given is biochemical.

Experiment [4] deals with endothelial tube formation in co-cultures of ECFCs and ADSCs treated with VEGF. In words: cells. The class given is cell-based, human.
In experiment [5] the test system is ECFC/ADSC co-culture cell nuclei number.

Read-outs that look alike come from different tables or passages of the source.

T3 sequence (O60674 whole entry): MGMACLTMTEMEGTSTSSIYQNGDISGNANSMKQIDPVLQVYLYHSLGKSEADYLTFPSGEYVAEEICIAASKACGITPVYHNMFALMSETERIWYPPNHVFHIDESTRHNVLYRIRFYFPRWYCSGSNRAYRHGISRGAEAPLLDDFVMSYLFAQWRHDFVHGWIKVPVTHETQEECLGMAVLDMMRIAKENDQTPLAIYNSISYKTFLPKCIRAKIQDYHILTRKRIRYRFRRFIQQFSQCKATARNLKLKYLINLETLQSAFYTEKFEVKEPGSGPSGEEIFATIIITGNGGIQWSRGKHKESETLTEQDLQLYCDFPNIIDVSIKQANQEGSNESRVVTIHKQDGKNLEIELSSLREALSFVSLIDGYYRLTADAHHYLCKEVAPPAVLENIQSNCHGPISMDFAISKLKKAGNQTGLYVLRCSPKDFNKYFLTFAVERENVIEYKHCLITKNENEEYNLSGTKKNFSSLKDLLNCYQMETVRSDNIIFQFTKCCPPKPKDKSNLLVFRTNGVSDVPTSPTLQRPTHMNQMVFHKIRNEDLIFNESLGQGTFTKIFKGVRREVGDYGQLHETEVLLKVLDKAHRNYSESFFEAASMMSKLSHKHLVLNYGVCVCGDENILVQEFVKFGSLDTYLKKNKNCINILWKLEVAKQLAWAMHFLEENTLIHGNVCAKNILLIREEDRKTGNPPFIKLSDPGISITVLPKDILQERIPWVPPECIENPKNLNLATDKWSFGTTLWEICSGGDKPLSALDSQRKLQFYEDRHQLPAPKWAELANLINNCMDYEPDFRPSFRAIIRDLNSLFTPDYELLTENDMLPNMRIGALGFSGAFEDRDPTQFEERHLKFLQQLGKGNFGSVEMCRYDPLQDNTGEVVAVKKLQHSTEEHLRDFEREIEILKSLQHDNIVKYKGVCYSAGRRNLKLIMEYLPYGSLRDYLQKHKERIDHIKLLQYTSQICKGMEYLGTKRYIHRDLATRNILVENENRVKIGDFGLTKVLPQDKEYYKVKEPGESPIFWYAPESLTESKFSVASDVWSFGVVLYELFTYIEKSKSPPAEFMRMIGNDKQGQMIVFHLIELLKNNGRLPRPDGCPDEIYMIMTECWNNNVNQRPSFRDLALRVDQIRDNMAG
T5 sequence (P36888 27-993): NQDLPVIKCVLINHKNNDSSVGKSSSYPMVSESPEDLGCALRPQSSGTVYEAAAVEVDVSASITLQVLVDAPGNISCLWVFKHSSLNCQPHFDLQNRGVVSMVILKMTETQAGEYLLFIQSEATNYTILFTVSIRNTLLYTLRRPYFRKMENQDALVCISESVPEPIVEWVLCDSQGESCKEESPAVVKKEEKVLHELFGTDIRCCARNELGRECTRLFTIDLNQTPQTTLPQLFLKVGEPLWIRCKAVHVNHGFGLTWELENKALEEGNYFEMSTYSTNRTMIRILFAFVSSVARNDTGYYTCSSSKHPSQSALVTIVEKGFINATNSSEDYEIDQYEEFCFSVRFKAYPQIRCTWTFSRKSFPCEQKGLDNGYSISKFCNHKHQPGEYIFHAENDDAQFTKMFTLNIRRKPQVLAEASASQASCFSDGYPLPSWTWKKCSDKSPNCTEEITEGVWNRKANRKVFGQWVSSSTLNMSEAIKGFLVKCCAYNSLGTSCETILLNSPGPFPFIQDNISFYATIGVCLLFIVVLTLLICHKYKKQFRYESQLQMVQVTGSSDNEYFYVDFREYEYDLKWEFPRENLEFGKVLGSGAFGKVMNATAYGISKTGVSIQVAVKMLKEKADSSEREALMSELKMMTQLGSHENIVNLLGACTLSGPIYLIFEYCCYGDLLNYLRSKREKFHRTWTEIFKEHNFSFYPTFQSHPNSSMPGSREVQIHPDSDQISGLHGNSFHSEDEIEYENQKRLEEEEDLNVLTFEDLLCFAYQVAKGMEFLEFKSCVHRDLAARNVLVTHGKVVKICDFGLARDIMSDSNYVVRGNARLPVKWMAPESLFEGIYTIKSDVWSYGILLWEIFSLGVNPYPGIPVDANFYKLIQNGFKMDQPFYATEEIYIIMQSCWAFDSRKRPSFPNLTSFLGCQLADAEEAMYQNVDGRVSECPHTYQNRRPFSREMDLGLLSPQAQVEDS
T4 sequence (P49841 whole entry): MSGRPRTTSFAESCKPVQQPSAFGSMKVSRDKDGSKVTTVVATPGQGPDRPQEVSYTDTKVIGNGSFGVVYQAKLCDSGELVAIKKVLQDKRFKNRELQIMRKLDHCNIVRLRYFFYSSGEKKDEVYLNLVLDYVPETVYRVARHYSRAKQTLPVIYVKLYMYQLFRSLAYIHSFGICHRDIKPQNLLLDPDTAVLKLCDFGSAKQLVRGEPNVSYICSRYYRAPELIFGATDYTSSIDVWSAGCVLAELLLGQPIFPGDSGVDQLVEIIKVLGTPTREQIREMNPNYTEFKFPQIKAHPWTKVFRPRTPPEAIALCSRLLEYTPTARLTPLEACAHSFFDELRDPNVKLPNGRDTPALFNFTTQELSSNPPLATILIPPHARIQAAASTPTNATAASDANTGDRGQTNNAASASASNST
T1 sequence (P23443 whole entry): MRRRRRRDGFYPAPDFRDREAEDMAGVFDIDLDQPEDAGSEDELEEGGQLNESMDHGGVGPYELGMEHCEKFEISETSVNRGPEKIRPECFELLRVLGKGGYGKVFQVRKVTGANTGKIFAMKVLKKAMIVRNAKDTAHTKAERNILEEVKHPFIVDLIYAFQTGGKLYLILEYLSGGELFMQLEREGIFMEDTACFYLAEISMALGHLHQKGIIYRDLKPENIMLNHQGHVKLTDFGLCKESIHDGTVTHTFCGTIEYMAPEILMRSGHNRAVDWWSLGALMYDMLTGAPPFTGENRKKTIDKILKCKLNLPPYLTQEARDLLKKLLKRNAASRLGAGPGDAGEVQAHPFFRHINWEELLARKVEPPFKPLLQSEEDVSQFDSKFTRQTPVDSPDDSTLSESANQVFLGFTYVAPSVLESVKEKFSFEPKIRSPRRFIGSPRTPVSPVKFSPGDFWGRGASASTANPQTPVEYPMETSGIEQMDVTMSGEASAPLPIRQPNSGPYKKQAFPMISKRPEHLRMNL
T2 sequence (P35968 20-1356): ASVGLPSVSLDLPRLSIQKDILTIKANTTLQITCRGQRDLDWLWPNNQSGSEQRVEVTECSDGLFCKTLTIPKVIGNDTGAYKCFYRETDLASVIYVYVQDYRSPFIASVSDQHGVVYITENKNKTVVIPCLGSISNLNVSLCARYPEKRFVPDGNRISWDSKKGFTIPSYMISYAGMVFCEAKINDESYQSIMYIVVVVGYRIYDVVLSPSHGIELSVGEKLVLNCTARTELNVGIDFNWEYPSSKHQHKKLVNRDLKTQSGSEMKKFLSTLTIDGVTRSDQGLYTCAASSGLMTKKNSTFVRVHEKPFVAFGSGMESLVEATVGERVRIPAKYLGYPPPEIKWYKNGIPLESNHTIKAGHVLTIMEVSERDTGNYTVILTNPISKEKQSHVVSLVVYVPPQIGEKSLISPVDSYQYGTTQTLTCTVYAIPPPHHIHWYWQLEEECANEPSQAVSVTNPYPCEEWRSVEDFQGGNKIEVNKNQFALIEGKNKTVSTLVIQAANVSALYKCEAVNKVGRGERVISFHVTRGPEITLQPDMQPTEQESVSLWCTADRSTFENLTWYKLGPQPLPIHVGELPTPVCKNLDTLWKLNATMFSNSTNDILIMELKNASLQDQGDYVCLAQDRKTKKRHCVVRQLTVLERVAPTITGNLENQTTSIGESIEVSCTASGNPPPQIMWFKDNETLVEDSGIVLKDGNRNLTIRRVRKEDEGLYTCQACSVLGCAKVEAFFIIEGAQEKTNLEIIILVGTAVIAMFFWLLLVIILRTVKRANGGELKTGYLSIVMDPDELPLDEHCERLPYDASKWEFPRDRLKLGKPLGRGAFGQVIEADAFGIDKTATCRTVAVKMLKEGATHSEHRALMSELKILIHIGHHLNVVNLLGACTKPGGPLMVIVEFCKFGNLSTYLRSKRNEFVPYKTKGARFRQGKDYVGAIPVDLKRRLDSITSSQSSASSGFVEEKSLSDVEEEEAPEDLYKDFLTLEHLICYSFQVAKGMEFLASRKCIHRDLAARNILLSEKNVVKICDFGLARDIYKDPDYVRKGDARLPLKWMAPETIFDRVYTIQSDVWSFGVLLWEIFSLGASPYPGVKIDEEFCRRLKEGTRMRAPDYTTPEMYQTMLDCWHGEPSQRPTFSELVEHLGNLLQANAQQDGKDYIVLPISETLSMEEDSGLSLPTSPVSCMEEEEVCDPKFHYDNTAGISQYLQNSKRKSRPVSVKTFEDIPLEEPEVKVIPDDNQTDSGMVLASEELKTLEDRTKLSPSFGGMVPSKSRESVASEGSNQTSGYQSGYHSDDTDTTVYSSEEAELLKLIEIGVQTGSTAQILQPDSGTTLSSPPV

On to `COc1cccc2c1C(=O)c1c(O)c3c(c(O)c1C2=O)C[C@@](O)(C(C)=O)C[C@@H]3O[C@H]1C[C@H](N)[C@H](O)[C@H](C)O1` [NCGC00024246-15], for which the “WntCondMedia_bCatenin C2C12 IC50/EC50” value in experiment [1] (assay number 5, concentration response) was determined as 369.1 nM. Further, the “WntCondMedia_Alk Phos C2C12 IC50/EC50” value in [2] (assay number 6, concentration response) stood at 6.1 nM. Also, in the experiment on HeLa cells (assay number 14, 2N), the “Hela CellCycMod PI 2N IC50/EC50” value was 10.16 nM. Further, the “Hela CellCycMod PI S Phase IC50/EC50” value with HeLa cells (assay number 15, S phase) worked out at 9604.6 nM. In addition, the “Hela CellCycMod PI 4N IC50/EC50” value with HeLa cells (assay number 16, 4N) worked out at 46.45 nM. The “Hela CellCycMod PI MI IC50/EC50” value in the experiment with HeLa cells (assay number 17, MI) came to 373.8 nM. Moreover, the “Hela CellCycMod PI Cell Number IC50/EC50” value with HeLa cells (assay number 18, cell number) stood at 8.05 nM. Also, the “Basal_Viability ATP DLD-1 IC50/EC50” value in the experiment with DLD-1 (assay number 23, basal) worked out at 188 nM. For the same compound, in the experiment with SW480 (assay number 24, basal), the “Basal_Viability ATP SW480 IC50/EC50” value worked out at 1466 nM. Besides, in the experiment on HCT116 (assay number 25, basal), the “Basal_Viability ATP HCT116 IC50/EC50” value is 50.86 nM. In addition, in experiment [3] (assay number 26, GSK3b inhibitor pretreated), the “GSK3b inh pretreated_Viability ATP HCT116 IC50/EC50” value came out at 55.38 nM. For the same compound, the “Basal_Viability ATP Colo 320 IC50/EC50” value with Colo320 (assay number 27, basal) worked out at 9247.6 nM. Moreover, the “Basal_Viability ATP HT-29 IC50/EC50” value in the experiment with HT-29 (assay number 28, basal) was found to be 648.5 nM. Further, the “Basal_Viability ATP RKO IC50/EC50” value with RKO (assay number 29, basal) is 118.2 nM. Moreover, the “Basal_Viability ATP SNU-C1 IC50/EC50” value in the experiment with SNU-C1 (assay number 30, basal) was found to be 337.6 nM. For the same compound, the “hp70S6K1 LANCE IC50/EC50” value at hp70S6K1 (RPS6KB1) (assay number 31) is above 20000 nM. The “hKDR LANCE IC50/EC50” value on hKDR (assay number 32) is above 20000 nM. In addition, the “hJAK2 LANCE IC50/EC50” value on hJAK2 (assay number 33) is above 20000 nM. The “hGSK3b LANCE IC50/EC50” value at hGSK3b (assay number 34) is above 20000 nM. On hFLT3 (assay number 35), the “hFLT3 LANCE IC50/EC50” value is above 20000 nM.

Turning to `COC(=O)Nc1nc2ccc([S+]([O-])c3ccccc3)cc2[nH]1` (centres unmarked) [NCGC00095157-05], in experiment [4], the “IC50/EC50, VEGF_ADSC\ECFC Angio CD31 TubeArea (assay number 2)” value came to 288.4 nM. For the same compound, the “IC50/EC50, WntCondMedia_bCatenin C2C12 (assay number 5)” value in experiment [1] (concentration response) is 468.3 nM. In addition, in experiment [2] (concentration response), the “IC50/EC50, WntCondMedia_Alk Phos C2C12 (assay number 6)” value came to 559.3 nM. In the experiment with HeLa cells (2N), the “IC50/EC50, Hela CellCycMod PI 2N (assay number 14)” value worked out at 326.3 nM. The “IC50/EC50, Hela CellCycMod PI 4N (assay number 16)” value in the experiment with HeLa cells (4N) came out at 331 nM. Further, in the experiment with HeLa cells (Cell Number), the “IC50/EC50, Hela CellCycMod PI Cell Number (assay number 18)” value was 257.5 nM. Also, in the experiment with HeLa cells (MI), the “IC50/EC50, Hela CellCycMod PI MI (assay number 17)” value was found to be 241.1 nM. For the same compound, the “IC50/EC50, Basal_Viability ATP DLD-1 (assay number 23)” value in the experiment on DLD-1 (basal) was above 20000 nM. The “IC50/EC50, Basal_Viability ATP SW480 (assay number 24)” value with SW480 (basal) is above 20000 nM. Moreover, the “IC50/EC50, Basal_Viability ATP HCT116 (assay number 25)” value with HCT116 (basal) was found to be 1 nM. In addition, the “IC50/EC50, GSK3b inh pretreated_Viability ATP HCT116 (assay number 26)” value in experiment [3] (GSK3b inh pretreated) was 1 nM. Also, in the experiment with HT-29 (basal), the “IC50/EC50, Basal_Viability ATP HT-29 (assay number 28)” value is above 20000 nM. For the same compound, in the experiment with RKO (basal), the “IC50/EC50, Basal_Viability ATP RKO (assay number 29)” value was determined as 1 nM. In addition, the “IC50/EC50, hp70S6K1 LANCE (assay number 31)” value against hp70S6K1 (RPS6KB1) was above 20000 nM. The “IC50/EC50, hKDR LANCE (assay number 32)” value at hKDR was above 20000 nM. In addition, the “IC50/EC50, hJAK2 LANCE (assay number 33)” value against hJAK2 is above 20000 nM. Besides, on hGSK3b, the “IC50/EC50, hGSK3b LANCE (assay number 34)” value was above 20000 nM. The “IC50/EC50, hFLT3 LANCE (assay number 35)” value against hFLT3 was above 20000 nM. Moreover, the “IC50/EC50, VEGF_ADSC\ECFC Angio Hoechst NucArea (assay number 3)” value in [5] was above 10000 nM.

Turning to `O=[N+]([O-])c1ccc(O)c2ncccc12` [NCGC00160664-03], the “IC50/EC50, WntCondMedia_bCatenin C2C12 (assay number 5)” value in experiment [1] is above 20000 nM. In addition, the “IC50/EC50, WntCondMedia_Alk Phos C2C12 (assay number 6)” value in experiment [2] is 6361.5 nM. In addition, in the experiment with HeLa cells, the “IC50/EC50, Hela CellCycMod PI 2N (assay number 14)” value came out at 1702.8 nM; the “IC50/EC50, Hela CellCycMod PI 4N (assay number 16)” value was above 10000 nM; the “IC50/EC50, Hela CellCycMod PI Cell Number (assay number 18)” value came to 295.2 nM; the “IC50/EC50, Hela CellCycMod PI MI (assay number 17)” value was above 10000 nM. In addition, the “IC50/EC50, Hela CellCycMod PI S Phase (assay number 15)” value in the experiment with HeLa cells was above 10000 nM. For the same compound, in the experiment with DLD-1, the “IC50/EC50, Basal_Viability ATP DLD-1 (assay number 23)” value turned out to be 1375 nM. Besides, the “IC50/EC50, Basal_Viability ATP SW480 (assay number 24)” value with SW480 was found to be 604.6 nM. In addition, in the experiment on HCT116, the “IC50/EC50, Basal_Viability ATP HCT116 (assay number 25)” value amounted to 920.6 nM. Further, in experiment [3], the “IC50/EC50, GSK3b inh pretreated_Viability ATP HCT116 (assay number 26)” value stood at 375.1 nM. In addition, in the experiment on Colo320, the “IC50/EC50, Basal_Viability ATP Colo 320 (assay number 27)” value was found to be 683.7 nM. The “IC50/EC50, Basal_Viability ATP HT-29 (assay number 28)” value with HT-29 is above 20000 nM. In addition, in the experiment with RKO, the “IC50/EC50, Basal_Viability ATP RKO (assay number 29)” value amounted to 710.1 nM. In the experiment with SNU-C1, the “IC50/EC50, Basal_Viability ATP SNU-C1 (assay number 30)” value is above 20000 nM. The “IC50/EC50, hp70S6K1 LANCE (assay number 31)” value against hp70S6K1 (RPS6KB1) is above 20000 nM. The “IC50/EC50, hKDR LANCE (assay number 32)” value at hKDR is above 20000 nM. In addition, on hJAK2, the “IC50/EC50, hJAK2 LANCE (assay number 33)” value was above 20000 nM. Besides, the “IC50/EC50, hGSK3b LANCE (assay number 34)” value at hGSK3b was above 20000 nM. Besides, the “IC50/EC50, hFLT3 LANCE (assay number 35)” value against hFLT3 was above 20000 nM.
